Holding throughout (type): cell-based
Assay [1] deals with human chronic myeloid leukemia cell line K562. The assay can be described thus: Cytostatic activity on leukemia cell line K562 (WST-1). The settings on record: Homo sapiens; 10 μmol/L, 72 hours, K562 cells; read-out: cytostatic rate K562 (%) (10 μmol/L). On the procedure: (§1) The cytostatic rates of a test compound on human acute myeloid leukemia cell lines MV-4-11 and ML-1, and human chronic myeloid leukemia cell line K562 were determined in the following manner.
(§2) Each cell was cultured using Roswell Park Memorial Institute's Medium (RPMI) 1640 (Gibco, Catalog No. 11875-093) containing 10% fetal bovine serum (Gibco, Catalog No. 10437-028) and 1% penicillin/streptomycin (1:1) (Gibco, Catalog No. 15140-122). Each 80 μL of the MV-4-11 cell having a concentration of 7.5×10^4 cells/mL (or the ML-1 cell or K562 cell having a concentration of 2.5×10^4 cells/mL) was inoculated to wells of a TC MICROWELL 96U plate (Nalge Nunc International, Catalog No. 163320) and was cultured in a 5% carbon dioxide gas incubator at 37° C. for 4 hours. As a blank, only RPMI medium (80 μL) was added to a well. Each 20 μL of a solution of the test compound in dimethyl sulfoxide (DMSO) which was prepared to make the final concentration to 10 μmol/L, was added to the MV-4-11 cell, ML-1 cell and K562 cell, respectively. Each 20 μL of DMSO was added to the control well and the blank well to […]. After adding the test compound, the cells were incubated in a 5% carbon dioxide gas incubator at 37° C. for 72 hours. After adding 20 μL of WST-1 reagent {4-[3-(4-iodophenyl)-2-(4-nitrophenyl)-2H-5-tetrazolio]-1,3-benzene disulfonate sodium salt} (Roche Diagnostics K.K., Catalog No. 1644807) diluted to 50% with RPMI medium, the cells were further incubated at 37° C. for 2 hours. Then, the absorbances at 450 nm (reference wavelength: 690 nm) were determined with a microplate spectrophotometer SPECTRA max 340PC (Molecular Devices Corporation). The relative growth (%) of a well to which the test compound had been added was determined while setting the absorbance of a well to which not the test compound but DMSO alone had been added (control) at 100% and that of a well containing RPMI medium alone at 0%. The cytostatic rate (%) of the test compound was determined by subtracting the calculated relative growth from 100.
A general note: Tetrazolium assays rely on reduction of a dye to a coloured formazan, in cell work by metabolically active cells.

Assay [2] has as its system human acute myeloid leukemia cell line MV-4-11. The assay can be described thus: Cytostatic activity on leukemia cell line MV-4-11 (WST-1). The settings on record: Homo sapiens, MV4-11; 10 μmol/L, 72 hours, MV-4-11 cells; read-out: cytostatic rate MV-4-11 (%) (10 μmol/L). How it is done:
as §1, §2

In assay [3] the test system is human colon cancer cell line Colo205. Nature of the assay: Cytostatic activity on solid carcinoma cell line Colo205 (WST-1). The settings on record: Homo sapiens, COLO 205; 10 μmol/L, 72 hours, Colo205 cells; read-out: cytostatic rate Colo205 (%) (10 μmol/L). On the procedure:
as §2
The cytostatic rate of a test compound on the human colon cancer cell line Colo205 was determined in the following manner.
The cell was cultured using Roswell Park Memorial Institute's Medium (RPMI) 1640 (Gibco, Catalog No. 11875-093) containing 10% fetal bovine serum (Gibco, Catalog No. 10437-028) and 1% penicillin/streptomycin (1:1) (Gibco, Catalog No. 15140-122). Each 80 μL of the Colo205 having a concentration of 1.25×10^4 cells/mL was inoculated to wells of a TC MICROWELL 96F plate (Nalge Nunc International, Catalog No. 167008) and was cultured in a 5% carbon dioxide gas incubator at 37° C. for 24 hours. As a blank, only RPMI (80 μL) was added to a well. Each 20 μL of a solution of the test compound in DMSO which was prepared to make the final concentration to 10 μmol/L, was added to the Colo205 cell. Each 20 μL of DMSO was added to the control well and the blank well to […]. After adding the test compound, the cell was incubated in a 5% carbon dioxide gas incubator at 37° C. for 72 hours. The cytostatic rate (%) was then determined in the same way as the leukemia cell lines.

Assay [4] relates to human acute myeloid leukemia cell line ML-1. Nature of the assay: Cytostatic activity on leukemia cell line ML-1 (WST-1). The settings on record: Homo sapiens, ML1; 10 μmol/L, 72 hours, ML-1 cells; read-out: cytostatic rate ML-1 (%) (10 μmol/L). How it is done: as §1, §2

Counter-ions that a name gives are not always drawn.

For the molecule `CC(C)(O)CC(=O)N1CCN(C(=O)c2ccc(/C=C/c3n[nH]c4ccccc34)cc2)CC1` [Compound 90, (E)-4-(3-methyl-3-hydroxybutyryl)-1-{4-[2-(1H-indazol-3-yl)vinyl]benzoyl}piperazine], the inhibition at 10 µM stood at 85% in assay [1], 98% in assay [2], 88% in assay [3] and 79% in assay [4].

`CN(C)C(=O)C1CCN(C(=O)c2ccc(/C=C/c3n[nH]c4ccccc34)cc2)CC1` [Compound 92, (E)-N,N-dimethyl-1-{4-[2-(1H-indazol-3-yl)vinyl]benzoyl}piperidine-4-carboxamide]: the inhibition at 10 µM in assay [1] stood at 89%; in assay [2], 98%; in assay [3], 89%; in assay [4] it was 88%.

Turning to `Cc1cc(/C=C/c2n[nH]c3ccccc23)ccc1C(=O)N1CCNCC1` [Compound 95, (E)-1-{4-[2-(1H-indazol-3-yl)vinyl]-2-methylbenzoyl}piperazine dihydrochloride], the inhibition at 10 µM in assay [1] was found to be 93%; in assay [2], 96%; in assay [3], 86%; in assay [4] it was 70%.

With `COCCC(=O)N1CCN(C(=O)c2ccc(/C=C/c3n[nH]c4ccccc34)cc2)CC1` [Compound 98, (E)-4-(3-methoxypropionyl)-1-{4-[2-(1H-indazol-3-yl)vinyl]benzoyl}piperazine], the inhibition at 10 µM in assay [1] stood at 89%; in assay [2], 98%; in assay [3], 88%; in assay [4] it was 79%.

`O=C(NC1CCN(C(=O)c2ccc(/C=C/c3n[nH]c4ccccc34)cc2)CC1)N1CCOCC1` [Compound 99, (E)-1-{4-[2-(1H-indazol-3-yl)vinyl]benzoyl}-4-(morpholinocarbonylamino)piperidine]: the inhibition at 10 µM turned out to be 94% in assay [1], 97% in assay [2], 95% in assay [3] and 86% in assay [4].

Consider `C[C@H]1CN(C(=O)c2ccc(/C=C/c3n[nH]c4ccccc34)cc2)CCN1` [Compound 101, (S)-(E)-1-{4-[2-(1H-indazol-3-yl)vinyl]benzoyl}-3-methylpiperazine dihydrochloride], for which the inhibition at 10 µM in assay [1] was 92%; in assay [2] it was 99%; in assay [3], 87%; in assay [4] it was 77%.

Consider `O=C(c1ccc(/C=C/c2n[nH]c3ccccc23)cc1)N1CCN(CCO)CC1` [Compound 105, (E)-1-{4-[2-(1H-indazol-3-yl)vinyl]benzoyl}-4-(2-hydroxyethyl)piperazine], for which the inhibition at 10 µM came to 90% in assay [1], 96% in assay [2], 88% in assay [3] and 85% in assay [4].

As to `O=C(c1ccc(/C=C/c2n[nH]c3ccccc23)cc1)N1CCC(N2CCOCC2)CC1` [Compound 106, (E)-1-{4-[2-(1H-indazol-3-yl)vinyl]benzoyl}-4-morpholinopiperidine], the inhibition at 10 µM in assay [1] was 35%; in assay [2], 98%; in assay [3], 37%; in assay [4], 58%.

With `CC(C)N1CCN(C(=O)c2ccc(/C=C/c3n[nH]c4ccccc34)cc2)CC1` [Compound 107, (E)-1-{4-[2-(1H-indazol-3-yl)vinyl]benzoyl}-4-isopropylpiperazine hydrochloride], the inhibition at 10 µM in assay [1] stood at 91%; in assay [2], 98%; in assay [3], 84%; in assay [4] it was 77%.

As for `CNCCNC(=O)c1ccc(/C=C/c2n[nH]c3ccccc23)cc1` [Compound 112, (E)-N-[2-(methylamino)ethyl]-4-[2-(1H-indazol-3-yl)vinyl]benzamide hydrochloride], the inhibition at 10 µM in assay [1] is 81%; in assay [2], 98%; in assay [3], 88%; in assay [4], 83%.

Consider `CCC(C)N1CCN(C(=O)c2ccc(/C=C/c3n[nH]c4ccccc34)cc2)CC1=O` (stereo not drawn) [Compound 116, (E)-4-{4-[2-(1H-indazol-3-yl)vinyl]benzoyl}-1-(sec-butyl)piperazin-2-one hydrochloride], for which the inhibition at 10 µM amounted to 88% in assay [1], 98% in assay [2], 91% in assay [3] and 79% in assay [4].

In the case of `NC1CCN(C(=O)c2ccc(/C=C/c3n[nH]c4ccccc34)cc2)C1` (stereo not drawn) [Compound 122, (E)-1-{4-[2-(1H-indazol-3-yl)vinyl]benzoyl}-3-aminopyrrolidine dihydrochloride], the inhibition at 10 µM turned out to be 93% in assay [1], 98% in assay [2], 89% in assay [3] and 79% in assay [4].

Consider `O=C(c1ccc(/C=C/c2n[nH]c3ccccc23)cc1)N1CCN(C(=O)[C@H]2CCNC2)CC1` [Compound 124, (S)-(E)-1-{4-[2-(1H-indazol-3-yl)vinyl]benzoyl}-4-(pyrrolidin-3-ylcarbonyl)piperazine dihydrochloride], for which the inhibition at 10 µM in assay [1] came out at 94%; in assay [2] it was 98%; in assay [3], 87%; in assay [4] it was 83%.

As to `CN(C)CC(=O)N1CCN(C(=O)c2ccc(/C=C/c3n[nH]c4ccccc34)cc2)CC1` [Compound 125, (E)-4-dimethylaminoacetyl-1-{4-[2-(1H-indazol-3-yl)vinyl]benzoyl}piperazine], the inhibition at 10 µM is 91% in assay [1], 98% in assay [2], 86% in assay [3] and 79% in assay [4].

In the case of `CCOCC(=O)N1CCN(C(=O)c2ccc(/C=C/c3n[nH]c4ccccc34)cc2)CC1` [Compound 128, (E)-4-ethoxyacetyl-1-{4-[2-(1H-indazol-3-yl)vinyl]benzoyl}piperazine], the inhibition at 10 µM was found to be 87% in assay [1], 98% in assay [2], 88% in assay [3] and 79% in assay [4].

For the molecule `CC(C)(N)C(=O)N1CCN(C(=O)c2ccc(/C=C/c3n[nH]c4ccccc34)cc2)CC1` [Compound 131, (E)-4-(2-amino-2-methylpropionyl)-1-{4-[2-(1H-indazol-3-yl)vinyl]benzoyl}piperazine dihydrochloride], the inhibition at 10 µM in assay [1] came out at 98%; in assay [2], 99%; in assay [3], 91%; in assay [4], 85%.

For `CN(C)C(=O)NC1CCN(C(=O)c2ccc(/C=C/c3n[nH]c4ccccc34)cc2)CC1` [Compound 132, (E)-4-dimethylcarbamoylamino-1-{4-[2-(1H-indazol-3-yl)vinyl]benzoyl}piperidine], the inhibition at 10 µM in assay [1] worked out at 95%; in assay [2] it was 100%; in assay [3], 91%; in assay [4], 88%.

Consider `COCCN1CCN(C(=O)c2ccc(/C=C/c3n[nH]c4ccccc34)cc2)CC1=O` [Compound 134, (E)-4-{4-[2-(1H-indazol-3-yl)vinyl]benzoyl}-1-(2-methoxyethyl)piperazin-2-one hydrochloride], for which the inhibition at 10 µM was found to be 91% in assay [1], 100% in assay [2], 91% in assay [3] and 88% in assay [4].

These data come from patent US7919517B2, “Indazole derivatives” (Kyowa Hakko Kirin Co., Ltd., priority 2003, dated 2011).
